Blank lines part the entries; values can stand above or below the molecule they belong to.
System: 171881-019-R-J1-PDC tumor spheroid viability
Assay: Anticancer human tumor 171881-019-R-J1-PDC patient-derived invasive breast carcinoma cell line growth inhibition [PI3K]
Details: spheroids with HUVEC and MSC; for IC50: curve of first compound; for viability, T/C: stronger effect = lower value
Outline: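 Tumor cells were combined with HUVEC and MSCs into spheroids, then dosed with PI3K-inhibitor combinations over half-log ranges capped near clinical Cmax or 10 microM.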

[1] = second compound 0.00316 µM, first compound 0.0316 µM
[2] = second compound 0.00316 µM, first compound 0.1 µM
[3] = second compound 0.00316 µM, first compound 0.316 µM
[4] = second compound 0.00316 µM, first compound 1 µM
[5] = second compound 0.00316 µM, first compound 3.16 µM
[6] = second compound 0.00316 µM, first compound 10 µM
[7] = second compound 0.01 µM, first compound 0.0316 µM
[8] = second compound 0.01 µM, first compound 0.1 µM
[9] = second compound 0.01 µM, first compound 0.316 µM
[10] = second compound 0.01 µM, first compound 1 µM
[11] = second compound 0.01 µM, first compound 3.16 µM
[12] = second compound 0.01 µM, first compound 10 µM
[13] = second compound 0.0316 µM, first compound 0.0316 µM
[14] = second compound 0.0316 µM, first compound 0.1 µM
[15] = second compound 0.0316 µM, first compound 0.316 µM
[16] = second compound 0.0316 µM, first compound 1 µM
[17] = second compound 0.0316 µM, first compound 3.16 µM
[18] = second compound 0.0316 µM, first compound 10 µM
[19] = second compound 0.1 µM, first compound 0.0316 µM
[20] = second compound 0.1 µM, first compound 0.1 µM
[21] = second compound 0.1 µM, first compound 0.316 µM
[22] = second compound 0.1 µM, first compound 1 µM
[23] = second compound 0.1 µM, first compound 3.16 µM
[24] = second compound 0.1 µM, first compound 10 µM
[25] = second compound 0.316 µM, first compound 0.0316 µM
[26] = second compound 0.316 µM, first compound 0.1 µM
[27] = second compound 0.316 µM, first compound 0.316 µM
[28] = second compound 0.316 µM, first compound 1 µM
[29] = second compound 0.316 µM, first compound 3.16 µM
[30] = second compound 0.316 µM, first compound 10 µM
[31] = second compound 1 µM, first compound 0.0316 µM
[32] = second compound 1 µM, first compound 0.1 µM
[33] = second compound 1 µM, first compound 0.316 µM
[34] = second compound 1 µM, first compound 1 µM
[35] = second compound 1 µM, first compound 3.16 µM
[36] = second compound 1 µM, first compound 10 µM
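Further: spheroids exposed to compound for 7 days before viability read.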
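Wherever viability, T/C is given: 100% = DMSO vehicle-treated spheroids.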

IC50 (second compound 0.00316 µM): 149 nM
IC50 (second compound 0.01 µM): 134 nM
IC50 (second compound 0.0316 µM): 54.2 nM
IC50 (second compound 0.1 µM): < 31.6 nM
IC50 (second compound 0.316 µM): < 31.6 nM
IC50 (second compound 1 µM): < 31.6 nM
SMILES: Cn1ncc(Cl)c1-c1cc(C(=O)NC(CN)Cc2cccc(F)c2)sc1Cl (centres undefined) + CC(Nc1ccc2c(c1)OCCn1cc(N3C(=O)OCC3C(F)F)nc1-2)C(N)=O
viability, T/C [1]: 70%
viability, T/C [2]: 59.1%
viability, T/C [3]: 34.8%
viability, T/C [4]: 21.2%
viability, T/C [5]: 12.9%
viability, T/C [6]: 4.9%
viability, T/C [7]: 64.1%
viability, T/C [8]: 58.1%
viability, T/C [9]: 31.4%
viability, T/C [10]: 17.3%
viability, T/C [11]: 12.5%
viability, T/C [12]: 4.16%
viability, T/C [13]: 53.6%
viability, T/C [14]: 46.4%
viability, T/C [15]: 29.3%
viability, T/C [16]: 15.6%
viability, T/C [17]: 11.4%
viability, T/C [18]: 4.17%
viability, T/C [19]: 40.4%
viability, T/C [20]: 33.5%
viability, T/C [21]: 24.6%
viability, T/C [22]: 15.1%
viability, T/C [23]: 10.2%
viability, T/C [24]: 4.94%
viability, T/C [25]: 27.2%
viability, T/C [26]: 26.3%
viability, T/C [27]: 18.1%
viability, T/C [28]: 14.6%
viability, T/C [29]: 9.75%
viability, T/C [30]: 4.08%
viability, T/C [31]: 20.2%
viability, T/C [32]: 18.1%
viability, T/C [33]: 16.4%
viability, T/C [34]: 12.9%
viability, T/C [35]: 8.94%
viability, T/C [36]: 3.85%

IC50 (second compound 0.00316 µM): > 10000 nM
IC50 (second compound 0.01 µM): < 31.6 nM
IC50 (second compound 0.0316 µM): < 31.6 nM
IC50 (second compound 0.1 µM): < 31.6 nM
IC50 (second compound 0.316 µM): < 31.6 nM
IC50 (second compound 1 µM): < 31.6 nM
SMILES: CNC(=O)c1ccc(N2C(=S)N(c3ccc(C#N)c(C(F)(F)F)c3)C(=O)C2(C)C)cc1F + COc1c(OCCCN2CCOCC2)ccc2c3n(c(=NC(=O)c4cnc(N)nc4)nc12)CCN3
viability, T/C [1]: 64%
viability, T/C [2]: 77.1%
viability, T/C [3]: 68.7%
viability, T/C [4]: 80.8%
viability, T/C [5]: 62.1%
viability, T/C [6]: 61.8%
viability, T/C [7]: 46.4%
viability, T/C [8]: 48%
viability, T/C [9]: 53.4%
viability, T/C [10]: 50.3%
viability, T/C [11]: 43.5%
viability, T/C [12]: 43.5%
viability, T/C [13]: 28%
viability, T/C [14]: 27.9%
viability, T/C [15]: 28%
viability, T/C [16]: 24.5%
viability, T/C [17]: 25.8%
viability, T/C [18]: 21.8%
viability, T/C [19]: 9.2%
viability, T/C [20]: 7.58%
viability, T/C [21]: 7.75%
viability, T/C [22]: 8.13%
viability, T/C [23]: 8.01%
viability, T/C [24]: 7.49%
viability, T/C [25]: 2.27%
viability, T/C [26]: 1.99%
viability, T/C [27]: 2.25%
viability, T/C [28]: 2.17%
viability, T/C [29]: 2.25%
viability, T/C [30]: 3.05%
viability, T/C [31]: 1.38%
viability, T/C [32]: 1.14%
viability, T/C [33]: 1.18%
viability, T/C [34]: 1.73%
viability, T/C [35]: 1.02%
viability, T/C [36]: 1.64%

Source: PubChem BioAssay AID1963986 (Molecular Pharmacology Branch, DTP, NCI, 2024)
